Results reported in patent publication US5962480A, “Drug for ameliorating brain diseases” (Wakunaga Pharmaceutical Co., Ltd., priority 1995, dated 1999).
Structures can show the parent of a compound that is named as a salt. Where two headings read alike, the source gives them in different places.

What was measured:
[1] = oral toxicity (LD50), rats; settings: rat, in vivo, read-out: 50% lethal death (LD50)
[2] = tested on: hippocampus cells (neurites); assay: branching promotion effect on neurites; format: cell-based, rat; settings: one and two days after addition of the drug
Experimental: The hippocampus cells obtained in a manner similar to that in Example 1 were incubated for 24 hours in a medium containing fetal calf serum, then for a further 24 hours in a serum-free medium. Subsequently, the drug was added. When one day and two days elapsed after addition of the drug, photographs were taken of the same cells. The number of branches from the longest neurite was counted.

brain neurons = assay: inhibition of reduction of brain neurons (overall statement); format: cell-based, rat; settings: concentration-dependent; activity of control: 100%
Experimental: (§1) From a rat at the 18th day of pregnancy (having an 18 -day old embryo) the uterus was aseptically removed under etherification, and the fetus was obtained. The whole brain was collected from the fetus. From the brain placed in an L-15 medium were removed under a microscope the hippocampus, striate body, septum, cerebral cortex, and cerebellum. They were respectively minced with a knife. The minced tissue was treated by the addition of trypsin (0.25%) and DNase (0.01%) for 30 minutes at 37° C. to thereby isolate cells. The thus-isolated cells were suspended in Eagle's MEM medium supplemented with 10% fetal calf serum, and inoculated at a concentration of 4×10^4 cells/cm^2 into wells of a 48-well plate which had been coated with poly-L-lysin in advance. Following incubation for 24 hours, the medium was replaced by a serum-free DMEM/F-12 medium containing the drug. After three-days' additional incubation (six days for the striate body), the cells were fixed, stained, and the number of surviving cells in each well was counted.

septum neurons = assay: inhibition of reduction in survival rate of neurons, septum (number of surviving cells); format: cell-based; settings: Rattus norvegicus, Neuron, 72 h, 3 days, control 100%
Experimental: as §1

hippocampus neurons = assay: inhibition of reduction in survival rate of neurons, hippocampus (number of surviving cells); format: cell-based, rat; settings: for viability at 1 µg/mL / viability at 0.1 µg/mL / viability at 0.01 µg/mL / viability at 0.001 µg/mL / viability at 10 µg/mL: Rattus norvegicus, Neuron, 72 h, control 100%; for viability at 1 µg/mL: 10^-6 g/ml; for viability at 0.1 µg/mL: 10^-7 g/ml; for viability at 0.01 µg/mL: 10^-8 g/ml; for viability at 0.001 µg/mL: 10^-9 g/ml; for viability at 10 µg/mL: 10^-5 g/ml; for inhibitory effect against reduction in survival rate of neurons (in words): hippocampus cells, Example 2
Experimental: as §1, with “counted. Compounds (2) through (14) were tested analogously to Example 1 using hippocampus cells prepared in a manner similar to Example 1. As structural comparative compounds, the following compounds were used: 4H-pyran-4-one (hereinafter referred as Compound (15) and 3-methoxy-6 -hydroxymethyl-4H-pyran-4-one (hereinafter referred to as Compound (16)).” for “counted.”

striate body neurons = assay: inhibition of reduction in survival rate of neurons, striate body (number of surviving cells); format: cell-based; settings: Rattus norvegicus, Neuron, 144 h, 6 days, control 100%
Experimental: as §1

[3] = oral toxicity (LD50), mice; settings: mouse, in vivo, read-out: 50% lethal death (LD50)
cerebellum neurons = assay: inhibition of reduction in survival rate of neurons, cerebellum (number of surviving cells); format: cell-based; settings: Rattus norvegicus, Neuron, 72 h, 3 days, control 100%
Experimental: as §1

cerebral cortex neurons = assay: inhibition of reduction in survival rate of neurons, cerebral cortex (number of surviving cells); format: cell-based; settings: Rattus norvegicus, Cerebral cortex neuron, 72 h, 3 days, control 100%
Experimental: as §1

[4] = 3 days, read-out: Number of surviving cells, Hippocampus
[5] = read-out: Inhibitory effect against reduction in survival rate of neurons (survival rate class)

Compound: CCCCCc1oc(C)c(OC)c(=O)c1O [Compound (1), 3-Hydroxy-6-methyl-5-methoxy-2-pentyl-4H-pyran-4-one]
- LD50 [1]: ≥ 1000 mg/kg
- branching promotion effect on neurites (in words) [2]: confirmed to have a branching promotion effect on neurites
- concentration range of effect of inhibiting reduction of neurons (brain neurons): 1 to 100 ng/mL
- viability at 1 µg/mL (septum neurons; 10^-6 g/ml): 71.6%
- viability at 0.1 µg/mL (septum neurons; 10^-7 g/ml): 157%
- viability at 0.01 µg/mL (septum neurons; 10^-8 g/ml): 150%
- viability at 0.001 µg/mL (septum neurons; 10^-9 g/ml): 128%
- viability at 1 µg/mL (hippocampus neurons; [4]): 57.8%
- viability at 0.1 µg/mL (hippocampus neurons; [4]): 146%
- viability at 0.01 µg/mL (hippocampus neurons; [4]): 134%
- viability at 0.001 µg/mL (hippocampus neurons; [4]): 109%
- viability at 1 µg/mL (striate body neurons; 10^-6 g/ml): 83.8%
- viability at 0.1 µg/mL (striate body neurons; 10^-7 g/ml): 160%
- viability at 0.01 µg/mL (striate body neurons; 10^-8 g/ml): 139%
- viability at 0.001 µg/mL (striate body neurons; 10^-9 g/ml): 126%
- LD50 [3]: ≥ 1000 mg/kg
- viability at 1 µg/mL (cerebellum neurons; 10^-6 g/ml): 65.3%
- viability at 0.1 µg/mL (cerebellum neurons; 10^-7 g/ml): 147%
- viability at 0.01 µg/mL (cerebellum neurons; 10^-8 g/ml): 136%
- viability at 0.001 µg/mL (cerebellum neurons; 10^-9 g/ml): 137%
- viability at 1 µg/mL (cerebral cortex neurons; 10^-6 g/ml): 90.2%
- viability at 0.1 µg/mL (cerebral cortex neurons; 10^-7 g/ml): 125%
- viability at 0.01 µg/mL (cerebral cortex neurons; 10^-8 g/ml): 107%
- viability at 0.001 µg/mL (cerebral cortex neurons; 10^-9 g/ml): 104%

Compound: Cc1cc(=O)c(O)co1 [Compound (2), 3-Hydroxy-6-methyl-4H-pyran-4-one]
- viability at 10 µg/mL (hippocampus neurons; [5]): 130 to 150%
- viability at 1 µg/mL (hippocampus neurons; [5]): 110 to 130%
- viability at 0.1 µg/mL (hippocampus neurons; [5]): 90 to 110%
- viability at 0.01 µg/mL (hippocampus neurons; [5]): 90 to 110%
- viability at 0.001 µg/mL (hippocampus neurons; [5]): 90 to 110%

Compound: Cc1cc(=O)c(O)c(C)o1 [Compound (3), 3-Hydroxy-2,6-dimethyl-4H-pyran-4-one]
- branching promotion effect on neurites (in words) [2]: confirmed to have a branching promotion effect on neurites
- viability at 10 µg/mL (hippocampus neurons; [5]): 110 to 130%
- viability at 1 µg/mL (hippocampus neurons; [5]): 130 to 150%
- viability at 0.1 µg/mL (hippocampus neurons; [5]): 130 to 150%
- viability at 0.01 µg/mL (hippocampus neurons; [5]): 110 to 130%
- viability at 0.001 µg/mL (hippocampus neurons; [5]): 90 to 110%

Compound: CCCc1oc(C)cc(=O)c1O [Compound (4), 3-Hydroxy-6-methyl-2-propyl-4H-pyran-4-one]
- viability at 1 µg/mL (hippocampus neurons; [5]): 90 to 110%
- viability at 0.1 µg/mL (hippocampus neurons; [5]): 110 to 130%
- viability at 0.01 µg/mL (hippocampus neurons; [5]): 90 to 110%
- viability at 0.001 µg/mL (hippocampus neurons; [5]): 90 to 110%

Compound: CCCCCc1oc(C)cc(=O)c1O [Compound (5), 3-Hydroxy-6-methyl-2-pentyl-4H-pyran-4-one]
- viability at 1 µg/mL (hippocampus neurons; [5]): ≤ 90%
- viability at 0.1 µg/mL (hippocampus neurons; [5]): 110 to 130%
- viability at 0.01 µg/mL (hippocampus neurons; [5]): 90 to 110%
- viability at 0.001 µg/mL (hippocampus neurons; [5]): 90 to 110%

Compound: Cc1cc(=O)c(O)c(CO)o1 [Compound (6), 3-Hydroxy-6-methyl-2-hydroxymethyl-4H-pyran-4-one]
- viability at 10 µg/mL (hippocampus neurons; [5]): 110 to 130%
- viability at 1 µg/mL (hippocampus neurons; [5]): 110 to 130%
- viability at 0.1 µg/mL (hippocampus neurons; [5]): 110 to 130%
- viability at 0.01 µg/mL (hippocampus neurons; [5]): 90 to 110%
- viability at 0.001 µg/mL (hippocampus neurons; [5]): 90 to 110%

Compound: Cc1cc(=O)c(O)c(CN(C)C)o1 [Compound (7), 3-Hydroxy-6-methyl-2-dimethylaminomethyl-4H-pyran-4-one-HCl]
- viability at 10 µg/mL (hippocampus neurons; [5]): 110 to 130%
- viability at 1 µg/mL (hippocampus neurons; [5]): 110 to 130%
- viability at 0.1 µg/mL (hippocampus neurons; [5]): 90 to 110%
- viability at 0.01 µg/mL (hippocampus neurons; [5]): 90 to 110%
- viability at 0.001 µg/mL (hippocampus neurons; [5]): 90 to 110%

Compound: O=c1cc(CO)occ1O [Compound (8), 3-Hydroxy-6-hydroxymethyl-4H-pyran-4-one]
- viability at 10 µg/mL (hippocampus neurons; [5]): 110 to 130%
- viability at 1 µg/mL (hippocampus neurons; [5]): 110 to 130%
- viability at 0.1 µg/mL (hippocampus neurons; [5]): 90 to 110%
- viability at 0.01 µg/mL (hippocampus neurons; [5]): 90 to 110%
- viability at 0.001 µg/mL (hippocampus neurons; [5]): 90 to 110%

Compound: CCCCCc1oc(CO)cc(=O)c1O [Compound (9), 3-Hydroxy-6-hydroxymethyl-2-pentyl-4H-pyran-4-one]
- viability at 10 µg/mL (hippocampus neurons; [5]): 110 to 130%
- viability at 1 µg/mL (hippocampus neurons; [5]): 90 to 110%
- viability at 0.1 µg/mL (hippocampus neurons; [5]): 90 to 110%
- viability at 0.01 µg/mL (hippocampus neurons; [5]): 90 to 110%
- viability at 0.001 µg/mL (hippocampus neurons; [5]): 90 to 110%

Compound: CCCCC(O)c1oc(CO)cc(=O)c1O (stereo not drawn) [Compound (10), 3-Hydroxy-6-hydroxymethyl-2-(1'-hydroxypentyl)-4H-pyran-4-one]
- viability at 10 µg/mL (hippocampus neurons; [5]): 130 to 150%
- viability at 1 µg/mL (hippocampus neurons; [5]): 110 to 130%
- viability at 0.1 µg/mL (hippocampus neurons; [5]): 90 to 110%
- viability at 0.01 µg/mL (hippocampus neurons; [5]): 90 to 110%
- viability at 0.001 µg/mL (hippocampus neurons; [5]): 90 to 110%

Compound: CCCCCc1oc(C)c(O)c(=O)c1O [Compound (11), 3,5-Dihydroxy-6-methyl-2-pentyl-4H-pyran-4-one]
- viability at 1 µg/mL (hippocampus neurons; [5]): ≤ 90%
- viability at 0.1 µg/mL (hippocampus neurons; [5]): 130 to 150%
- viability at 0.01 µg/mL (hippocampus neurons; [5]): 90 to 110%
- viability at 0.001 µg/mL (hippocampus neurons; [5]): 90 to 110%

Compound: O=c1cc(C=Cc2ccccc2)occ1O [Compound (12), 3-Hydroxy-6-styryl-4H-pyran-4-one]
- viability at 10 µg/mL (hippocampus neurons; [5]): ≤ 90%
- viability at 1 µg/mL (hippocampus neurons; [5]): 110 to 130%
- viability at 0.1 µg/mL (hippocampus neurons; [5]): 110 to 130%
- viability at 0.01 µg/mL (hippocampus neurons; [5]): 90 to 110%
- viability at 0.001 µg/mL (hippocampus neurons; [5]): 90 to 110%

Compound: CC1=CC(=O)C(O)C=N1 (stereo not drawn) [Compound (13), 3-Hydroxy-6-methyl-4-pyridone]
- viability at 10 µg/mL (hippocampus neurons; [5]): 130 to 150%
- viability at 1 µg/mL (hippocampus neurons; [5]): 110 to 130%
- viability at 0.1 µg/mL (hippocampus neurons; [5]): 90 to 110%
- viability at 0.01 µg/mL (hippocampus neurons; [5]): 90 to 110%
- viability at 0.001 µg/mL (hippocampus neurons; [5]): 90 to 110%

Compound: O=C1C=C(CO)N=CC1O (stereo not drawn) [Compound (14), 3-Hydroxy-6-hydroxymethyl-4-pyridone]
- viability at 10 µg/mL (hippocampus neurons; [5]): 110 to 130%
- viability at 1 µg/mL (hippocampus neurons; [5]): 90 to 110%
- viability at 0.1 µg/mL (hippocampus neurons; [5]): 90 to 110%
- viability at 0.01 µg/mL (hippocampus neurons; [5]): 90 to 110%
- viability at 0.001 µg/mL (hippocampus neurons; [5]): 90 to 110%

Compound: O=c1ccocc1 [Compound (15), 4H-pyran-4-one, reference compound]
- viability at 10 µg/mL (hippocampus neurons; [5]): 90 to 110%
- viability at 1 µg/mL (hippocampus neurons; [5]): 90 to 110%
- viability at 0.1 µg/mL (hippocampus neurons; [5]): 90 to 110%
- viability at 0.01 µg/mL (hippocampus neurons; [5]): 90 to 110%
- viability at 0.001 µg/mL (hippocampus neurons; [5]): 90 to 110%
- inhibitory effect against reduction in survival rate of neurons (in words) (hippocampus neurons): no inhibitory effect

Compound: COc1coc(CO)cc1=O [Compound (16), 3-methoxy-6-hydroxymethyl-4H-pyran-4-one, reference compound]
- viability at 10 µg/mL (hippocampus neurons; [5]): 90 to 110%
- viability at 1 µg/mL (hippocampus neurons; [5]): 90 to 110%
- viability at 0.1 µg/mL (hippocampus neurons; [5]): 90 to 110%
- viability at 0.01 µg/mL (hippocampus neurons; [5]): 90 to 110%
- viability at 0.001 µg/mL (hippocampus neurons; [5]): 90 to 110%
- inhibitory effect against reduction in survival rate of neurons (in words) (hippocampus neurons): no inhibitory effect
